From patent US10954193B2 (Vanderbilt University, priority 2013, dated 2021)
Where two headings read alike, the source gives them in different places.

What was measured:
[1] = biological target: recombinant Mcl-1 (residues 172-327) (Homo sapiens (Human), UniProt Q07820); test: Bak peptide binding assay, fluorescence polarization anisotropy competition (FITC-Bak), Mcl-1; settings: FITC-Bak peptide 10 nM, Mcl-1 14 nM;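 further: displacement of labeled Bak peptide read by fluorescence anisotropy, 10-point threefold dilutions from 20 µM top dose in 5% DMSO, 90 min incubation at room temperature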
Experimental: Compound affinity was measured using a fluorescence polarization anisotropy competition assay. Anisotropy measurements were carried out in 384-well, black, flat-bottom plates (Greiner Bio-one, Monroe, N.C., USA). […] 10 nM FITC-Bak peptide and 14 nM recombinant Mcl-1 (residues 172-327) were added to assay buffer (3 mM dithiothreitol, 50 mM NaCl, 20 mM Tris, pH 7.5).

[2] = biological target: Bcl-xL (residues 1-209, loop 45-86 deleted) (Homo sapiens (Human), UniProt Q07817, DEL45-86); test: Bak peptide binding assay, fluorescence polarization anisotropy competition (FITC-Bak), Bcl-xL selectivity; settings: Table 4; FITC-Bak peptide 10 nM, Bcl-xL 4 nM
Experimental: (§1) Bak Peptide Binding Assay
(§2) Compound affinity was measured using a fluorescence polarization anisotropy competition assay. Anisotropy measurements were carried out in 384-well, black, flat-bottom plates (Greiner Bio-one, Monroe, N.C., USA). The assay was run using a fluorescein isothiocyanate-labeled BH3 peptide derived from Bak (FITC-AHx-[…]-NH2) that was purchased from GenScript (Piscataway, N.J.) at >95% purity and used without further purification. 10 nM FITC-Bak peptide and 14 nM recombinant Mcl-1 (residues 172-327) were added to assay buffer (3 mM dithiothreitol, 50 mM NaCl, 20 mM Tris, pH 7.5). For selectivity assays, 40 nM Bcl-2 (residues 1-207^A96T,G110R, Δ35-91, replaced with Bcl-xL35-50) or 4 nM Bcl-xL (residues 1-209, loop 45-86 deleted) were incubated with 10 nM FITC-Bak in assay buffer.
(§3) Compounds are diluted in DMSO in a 10-point, 3-fold serial dilution scheme. 2.5 uL compound is added to 47.5 uL of assay buffer containing FITC-Bak and protein, for a final DMSO concentration of 5% and a top concentration of 20 uM. […] The plate was mixed and incubated for 90 minutes at room temperature. Anisotropy is measured at excitation wavelength 480 nm and emission wavelength 535 nm using an EnVision Multi-label plate reader (PerkinElmer, Wellesley, Mass., USA). Fluorescence anisotropy is plotted against compound concentration to generate an IC50 (inhibitor concentration at which 50% of bound peptide is displaced) by fitting the data to a 4-parameter logistic model using XLFit software (Guildford, Surrey, UK). IC50 is converted to a binding dissociation constant (Ki value) according to the formula of Wang Z. FEBS Lett (1996) 3, 245: Ki=[I]50/([L]50/Kd+[P]0/Kd+1) where [I]50 is the concentration of the free inhibitor at 50% inhibition, [L]50 is the concentration of the free labeled ligand at 50% inhibition, [P]0 is the concentration of the free protein at 0% inhibition, Kd represents the dissociation constant of the FITC peptide probe.

K562 [3] = test: Cellular viability assay, CellTiter-Glo, K562; type: cell-based; settings: Homo sapiens, Table 6 viability assay (method: reduced serum, 1% FBS)
Experimental: (§4) Cellular Viability of a Human Tumor Cell Lines
(§5) Human cancer cell lines NCI-H23, K562, NCI-H929, and MV-4-11 were cultured in media supplemented with 10% fetal bovine serum (FBS). To evaluate compound effect on cellular proliferation, cells were plated at 1,000 cells/well in 96-well tissue culture plates in a total volume of 90 uL medium supplemented with 10% FBS (Sigma, Saint Louis, Mo.). 24 hours later, 10 uL of compound (in a 2-fold serial dilution) is added to the cells for a top concentration of 50 uM and a final DMSO concentration <1%. After 72 hours, cell number was measured using the CellTiter-Glo Luminescent assay according to manufacturer's recommendations (Promega, Madison, Wis.). A viability assay in reduced serum was also conducted. Cells were plated at 5,000 cells/well in 96-well plates in a total volume of 100 uL medium supplemented with 10% FBS (Sigma, Saint Louis, Mo.). 24 hours later, the medium was replaced with 90 uL medium containing 1% FBS and the assay conducted as described. EC50 values were determined by plotting growth against compound concentration in a 4-parameter logisitic model in XLFit.

NCI-H23 [4] = test: Cellular viability assay, CellTiter-Glo, NCI-H23; type: cell-based; settings: Homo sapiens, Table 6 viability assay (method: reduced serum, 1% FBS)
Experimental: as §4, §5

K562 [5] = test: Cellular proliferation, CellTiter-Glo, K562; type: cell-based; settings: Homo sapiens, 10% FBS, 72 hours
Experimental: as §4, §5

NCI-H23 [6] = test: Cellular proliferation, CellTiter-Glo, NCI-H23; type: cell-based; settings: Homo sapiens, 10% FBS, 72 hours
Experimental: as §4, §5

MV-4-11 [7] = test: Cellular proliferation, CellTiter-Glo, MV-4-11; type: cell-based; settings: Homo sapiens, MV4-11, 10% FBS, 72 hours, read-out: EC50 on cellular proliferation, NV-4-11
Experimental: as §4, §5

MV-4-11 [8] = test: Cellular viability assay, CellTiter-Glo, MV-4-11; type: cell-based; settings: Homo sapiens, MV4-11, Table 6 viability assay (method: reduced serum, 1% FBS), read-out: EC50 on cellular viability, NV-4-11
Experimental: as §4, §5

[9] = biological target: Bcl-2 (residues 1-207 A96T,G110R, Δ35-91, replaced with Bcl-xL35-50) (Homo sapiens (Human), UniProt P10415, DEL35-91/INS34DVEENRTEAPEGTESE); test: Bak peptide binding assay, fluorescence polarization anisotropy competition (FITC-Bak), Bcl-2 selectivity; settings: Table 4; FITC-Bak peptide 10 nM, Bcl-2 40 nM
Experimental: as §1, §2, §3

NCI-H929 = test: Cellular proliferation, CellTiter-Glo, NCI-H929; type: cell-based; settings: Homo sapiens, 10% FBS, 72 hours
Experimental: as §4, §5

[10] = Table 3, binned ranges, read-out: Ki for inhibition of Mcl-1

Sequence of recombinant Mcl-1 (residues 172-327) (Q07820 172-327): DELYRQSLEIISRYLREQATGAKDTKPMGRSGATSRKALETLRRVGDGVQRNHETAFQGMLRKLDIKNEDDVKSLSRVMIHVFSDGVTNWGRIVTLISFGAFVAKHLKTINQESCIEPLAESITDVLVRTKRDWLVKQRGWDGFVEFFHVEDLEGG
Sequence of Bcl-2 (residues 1-207 A96T,G110R, Δ35-91, replaced with Bcl-xL35-50) (P10415 other isoform, or with tags, fused parts or gaps, stated change not applied): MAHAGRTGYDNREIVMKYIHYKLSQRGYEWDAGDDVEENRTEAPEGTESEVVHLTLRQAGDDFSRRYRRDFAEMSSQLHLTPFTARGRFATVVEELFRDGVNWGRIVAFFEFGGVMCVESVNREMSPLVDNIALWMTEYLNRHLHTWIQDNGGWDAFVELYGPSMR
Sequence of Bcl-xL (residues 1-209, loop 45-86 deleted) (Q07817 other isoform, or with tags, fused parts or gaps del 45-86): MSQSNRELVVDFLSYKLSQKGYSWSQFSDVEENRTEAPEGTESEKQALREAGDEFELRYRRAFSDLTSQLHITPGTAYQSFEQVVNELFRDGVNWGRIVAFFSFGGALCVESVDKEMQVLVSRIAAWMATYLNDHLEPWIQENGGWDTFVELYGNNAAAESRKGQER

Row | SMILES | Ki [1, 10] | Ki ([1]; Table 4, read-out: Ki Mcl-1) | Ki [2] | EC50 (K562 [5]) | also measured
1 | Cc1cc(OCCCc2cn(CCC(=O)NS(C)(=O)=O)c3cc(Cl)ccc23)cc(C)c1Cl [Example 20, 3-(6-chloro-3-(3-(4-chloro-3,5-dimethylphenoxy)propyl)-1H-indol-1-yl)-N-(methylsulfonyl)propanamide] | 0.101 to 0.299 µM | 0.36 µM | 10 µM |  | 
2 | Cc1cc(OCCCc2c(C)n(CCC(=O)O)c3cc(Cl)ccc23)cc(C)c1Cl [Example 44, 3-(6-chloro-3-(3-(4-chloro-3,5-dimethylphenoxy)propyl)-2-methyl-1H-indol-1-yl)propanoic acid] | 0.101 to 0.299 µM | 0.17 µM | 7.9 µM |  | 
3 | Cc1cc(OCCCc2c(C)n(CCC(=O)O)c3c(-c4ccnn4C)cccc23)cc(C)c1Cl [Example 70, 3-(3-(3-(4-chloro-3,5-dimethylphenoxy)propyl)-2-methyl-7-(1-methyl-1H-pyrazol-5-yl)-1H-indol-1-yl)propanoic acid] | ≤ 0.1 µM |  |  |  | EC50 (K562 [3]): 4.1 µM; EC50 (NCI-H23 [4]): 5.8 µM
4 | Cc1ccncc1-c1cccc2c(CCCOc3cc(C)c(Cl)c(C)c3)c(C)n(CCC(=O)O)c12 [Example 71, 3-(3-(3-(4-chloro-3,5-dimethylphenoxy)propyl)-2-methyl-7-(4-methylpyridin-3-yl)-1H-indol-1-yl)propanoic acid] | ≤ 0.1 µM |  |  |  | EC50 (K562 [3]): 7 µM; EC50 (NCI-H23 [4]): 9.9 µM
5 | Cc1cc(OCCCc2c(C)n(CCC(=O)O)c3c(-c4c(C)n[nH]c4C)cccc23)cc(C)c1Cl [Example 74, 3-(3-(3-(4-chloro-3,5-dimethylphenoxy)propyl)-7-(3,5-dimethyl-1H-pyrazol-4-yl)-2-methyl-1H-indol-1-yl)propanoic acid] | ≤ 0.1 µM |  |  | 21.2 µM | EC50 (K562 [3]): 2 µM; EC50 (NCI-H23 [6]): 19.8 µM; EC50 (NCI-H23 [4]): 5.4 µM; EC50 (MV-4-11 [7]): 11.5 µM
6 | Cc1cc(OCCCc2c(C)n(CCC(=O)O)c3c(-c4c(C)nn(C)c4C)cccc23)cc(C)c1Cl [Example 76, 3-(3-(3-(4-chloro-3,5-dimethylphenoxy)propyl)-2-methyl-7-(1,3,5-trimethyl-1H-pyrazol-4-yl)-1H-indol-1-yl)propanoic acid] | ≤ 0.1 µM | 0.007 µM | 7.9 µM | 17.1 µM | EC50 (MV-4-11 [8]): 2.8 µM; EC50 (MV-4-11 [7]): 16.2 µM; Ki [9]: 7.1 µM

The next lines start with results.

Row | Ki [1, 10] | Ki ([1]; Table 4, read-out: Ki Mcl-1) | Ki [2] | EC50 (K562 [5]) | SMILES | also measured
7 | ≤ 0.1 µM |  |  | 10 µM | Cc1cc(OCCCc2c(C)n(CCC(=O)O)c3c(-c4c(C)nn(C(C)C)c4C)cccc23)cc(C)c1Cl [Example 78, 3-(3-(3-(4-chloro-3,5-dimethylphenoxy)propyl)-7-(1-isopropyl-3,5-dimethyl-1H-pyrazol-4-yl)-2-methyl-1H-indol-1-yl)propanoic acid] | EC50 (MV-4-11 [7]): 12.9 µM
8 | ≤ 0.1 µM |  |  |  | Cc1cnccc1-c1cccc2c(CCCOc3cc(C)c(Cl)c(C)c3)c(C)n(CCC(=O)NS(C)(=O)=O)c12 [Example 83, 3-(3-(3-(4-chloro-3,5-dimethylphenoxy)propyl)-2-methyl-7-(3-methylpyridin-4-yl)-1H-indol-1-yl)-N-(methylsulfonyl)propanamide] | EC50 (MV-4-11 [8]): 1.9 µM
9 | ≤ 0.1 µM | 0.011 µM | 9.3 µM |  | Cc1cc(OCCCc2c(C)n(Cc3ccc(C(=O)O)o3)c3c(-c4c(C)n[nH]c4C)cccc23)cc(C)c1Cl [Example 99, 5-((3-(3-(4-chloro-3,5-dimethylphenoxy)propyl)-7-(3,5-dimethyl-1H-pyrazol-4-yl)-2-methyl-1H-indol-1-yl)methyl)furan-2-carboxylic acid] | Ki [9]: 2.9 µM
10 | ≤ 0.1 µM | 0.01 µM | 4.7 µM |  | Cc1cc(OCCCc2c(C)n(Cc3cccc(C(=O)O)c3)c3c(-c4c(C)n[nH]c4C)cccc23)cc(C)c1Cl [Example 100, 3-((3-(3-(4-chloro-3,5-dimethylphenoxy)propyl)-7-(3,5-dimethyl-1H-pyrazol-4-yl)-2-methyl-1H-indol-1-yl)methyl)benzoic acid] | Ki [9]: 1.2 µM
11 | ≤ 0.1 µM |  |  | 24.8 µM | Cc1cc(OCCCc2c(C)n(CCC(=O)O)c3c(-c4c(C)nn(C)c4C)c(Cl)ccc23)cc(C)c1Cl [Example 104, 3-(6-chloro-3-(3-(4-chloro-3,5-dimethylphenoxy)propyl)-2-methyl-7-(1,3,5-trimethyl-1H-pyrazol-4-yl)-1H-indol-1-yl)propanoic acid] | EC50 (NCI-H929): 20 µM
12 | ≤ 0.1 µM |  |  | 14.8 µM | Cc1cc(OCCCc2c(C(F)(F)F)n(Cc3ccc(CC(=O)O)cc3)c3c(-c4c(C)nn(C)c4C)cccc23)cc(C)c1Cl [Example 117, 2-(4-((3-(3-(4-chloro-3,5-dimethylphenoxy)propyl)-2-(trifluoromethyl)-7-(1,3,5-trimethyl-1H-pyrazol-4-yl)-1H-indol-1-yl)methyl)phenyl)acetic acid] | EC50 (NCI-H929): 8.8 µM
13 | ≤ 0.1 µM |  |  |  | Cc1cc(OCCCc2c(C(F)(F)F)n(CCC(=O)O)c3ccccc23)cc(C)c1Cl [Example 135, 3-(3-(3-(4-chloro-3,5-dimethylphenoxy)propyl)-2-(trifluoromethyl)-1H-indol-1-yl)propanoic acid] | 
